Tested on: plasmid DNA
Assay: Plasmid DNA interaction, agarose gel electrophoresis
Assay type: biochemical
Conditions: 200 ng plasmid DNA, 100–400 μM, cell-free
Method: The ability of compounds to intercalate, nick, or cleave DNA can be evaluated using gel electrophoresis with plasmid DNA. In this study, in vitro plasmid DNA assays were performed by incubating 200 ng of plasmid DNA with different concentrations (100–400 μM) of 1 or CDDP, which served as a positive control. The DNA fragments were then separated via agarose gel electrophoresis, and potential changes in DNA migration patterns were analyzed.
5 Plasmid DNA (200 ng) was incubated with varying concentrations (100, 200, and 400 μM) of compound 1 or CDDP for 24 h at room temperature. The DNA was then separated via agarose gel electrophoresis, and the intensity of supercoiled and nicked circular DNA bands was quantified and expressed as mean ± SEM (n = 4).
MDA-MB-231 cells at 4000 cells/well were seeded into a black clear -bottom 96-well plate using phenol-red free complete RMPI medium, and incubated for 48 h. […] Fluorescence images were obtained using a Zeiss Observer 7 inverted microscope at excitation at 488 nm and emission at 509 […]
Plasmid DNA (200 ng, pBOS -H2B-GFP, BD Biosciences) was incubated overnight at room temperature with 1 or CDDP at concentrations between 100 and 400 μM in double -distilled H2O (20 μL total volume). […] The experiment was conducted in two biological replicates, and the band intensities were quantified and analyzed using ImageJ software. […]

## [Cp*Ir(C16H14NO)(PTA)](PF6) [Compound 1]
  Plasmid DNA migration: did not induce any apparent shift
